Assay results: patent US6596772B1, “Phosphate mimics and methods of treatment using phosphatase inhibitors” (Sugen, Inc., priority 1999, dated 2003)
Read-outs that look alike come from different tables or passages of the source.

What was measured:
Experiment in all cases: PTP IC50 assay, pNPP or FDP as substrate
Type in all cases: biochemical
PTP MU = biological target: T1, PTP MU (Homo sapiens, UniProt P28827)
T1 construct: made in house; host or cells: E. coli BL-21 (pGEX 6P-1)
Protocol: (§1) The following in vitro assay procedure is preferred to determine the level of activity and effect of the different compounds of the present invention on one or more of the PTPs. Similar assays can be designed along the same lines for any PTP using techniques well known in the art.
(§2) The catalytic assays described herein are performed in a 96-well format. The general procedure begins with the determination of PTP optimal pH using a three-component buffer system that minimizes ionic strength variations across a wide range of buffer pH. Next, the Michaelis-Menten constant, or Km, is determined for each specific substrate-PTP system. This Km value is subsequently used as the substrate reaction concentration for compound screening. Finally, the test PTP is exposed to varying concentrations of compound for fifteen minutes and allowed to react with substrate for ten minutes. The results are plotted as percent inhibition versus compound concentration and the IC50 interpolated from the plot.
(§3) All assays were performed using pNPP or FDP as substrate. The optimum pH was determined for each PTP used.
(§4) PTPase activity was assayed at 25° C. in a 100-μl reaction mixture containing an appropriate concentration of pNPP or FDP as substrate. The reaction was initiated by addition of the PTP and quenched after 10 min by addition of 50 μl of IN NaOH. The non-enzymatic hydrolysis of the substrate was corrected by measuring the control without the addition of the enzyme. The amount of p-nitrophenol produced was determined from the absorbance at 410 nm. To determine the kinetic parameter, Km, the initial velocities were measured at various substrate concentrations and the data were fitted to the Michaelis equation where velocity=(Vmax*[S])/(Km+[S]), and [S]=substrate reaction concentration.
(§5) The effect of the compounds on PTP was evaluated at 25° C. using pNPP or FDP as substrate. PTP was pre-incubated for fifteen minutes with various concentrations of compound. Substrate was then added at a fixed concentration (usually equal to the Km previously calculated). After 10 minutes, NaOH was added to stop the reaction. The hydrolysis of pNPP was followed at 410 nm on the Biotek Powerwave 200 microplate scanning spectrophotometer. The percent inhibition was calculated as follows: Percent Inhibition=[(control signal−compound signal)/control signal] ×100%. The IC50 was then determined by interpolation of a percent inhibition versus compound concentration plot.
(§6) Plasmids designed for bacterial GST-PTP fusion protein expression were derived by insertion of PCR-generated human PTP fragments into pGEX vectors (Pharmacia Biotech). Several of these constructs were then used to subclone phosphatases into pFastBac-1for expression in Sf-9 insect cells. Oligonucleotides used for the initial amplification of PTP genes are shown below. The cDNAs were prepared using the Gilbo BRL superscript preamplification system on RNAs purchased from Clontech.
The PTP Mu cDNA was amplified from a human lung cDNA library (Clontech) using the following oligonucleotides; 5′oligo: 5′-[…]-3′ (SEQ ID NO: 18) 3′oligo: 5′-[…]-3′ (SEQ ID NO: 19) It was subsequently ligated into the Eco RI/Xho I sites of pGEX 6P-1.

PTP BETA = biological target: T2, PTP BETA (Homo sapiens, UniProt P23467)
T2 construct: The catalytic domain was amplified using the following oligonucleotides; made in house; host or cells: E. coli BL-21 (pGEX 6P-1)
T2 sequence (P23467 1653-1997): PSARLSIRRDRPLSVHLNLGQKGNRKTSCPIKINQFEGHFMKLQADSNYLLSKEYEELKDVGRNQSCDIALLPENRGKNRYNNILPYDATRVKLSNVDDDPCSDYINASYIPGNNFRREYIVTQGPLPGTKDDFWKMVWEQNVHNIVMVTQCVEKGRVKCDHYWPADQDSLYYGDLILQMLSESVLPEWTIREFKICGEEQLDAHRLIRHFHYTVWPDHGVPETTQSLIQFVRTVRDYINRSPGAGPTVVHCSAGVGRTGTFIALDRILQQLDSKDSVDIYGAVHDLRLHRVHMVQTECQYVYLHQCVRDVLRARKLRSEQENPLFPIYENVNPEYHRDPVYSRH
Protocol: as §1, §2, §3, §4, §5, §6
The PTP Beta cDNA used has been described earlier (Levy et al., 1993, J. Biol. Chem, 268:10573-10581). The catalytic domain was amplified using the following oligonucleotides: 5′oligo: 5′-[…]-3′ (SEQ ID NO: 16) 3′oligo: 5′-[…]-3′ (SEQ ID NO: 17) and subsequently cloned into the Eco RI/Xho I sites of pGEX 6P-1.

PTP 1B = biological target: T3, PTP 1B (Homo sapiens, UniProt P18031)
T3 construct: made in house; host or cells: Sf-9 insect cells (pFastBac-G2T)
T3 sequence (P18031 1-435): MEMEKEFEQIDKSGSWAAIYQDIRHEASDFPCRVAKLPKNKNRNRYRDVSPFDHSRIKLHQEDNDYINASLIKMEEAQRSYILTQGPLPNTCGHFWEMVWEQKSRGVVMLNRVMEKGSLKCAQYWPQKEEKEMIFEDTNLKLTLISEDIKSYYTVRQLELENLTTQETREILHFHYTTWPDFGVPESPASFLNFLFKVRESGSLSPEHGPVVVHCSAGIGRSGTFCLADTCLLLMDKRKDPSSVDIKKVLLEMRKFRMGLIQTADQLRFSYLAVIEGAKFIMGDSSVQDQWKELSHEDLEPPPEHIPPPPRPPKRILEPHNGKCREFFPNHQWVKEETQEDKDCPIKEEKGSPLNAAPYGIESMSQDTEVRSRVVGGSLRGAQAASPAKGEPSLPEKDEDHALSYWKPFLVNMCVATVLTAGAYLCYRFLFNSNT
Protocol: as §1, §2, §3, §4, §5, §6
The PTP1b cDNA was amplified from human placenta single strand cDNA (Clontech RNA) using the following oligonucleotides: 5′oligo: 5′-[…] (SEQ ID NO: 4) 3′oligo: 5′-[…] (SEQ ID NO: 5) It was subsequently ligated into pFasBac G2TBamH1Xba-1 sites.

PTP EPSILON = biological target: T4, PTP EPSILON (Homo sapiens, UniProt P23469)
T4 construct: made in house; host or cells: Sf-9 insect cells (pFastBac-G2T); a pGEX 6P-1 construct also existed
T4 sequence (P23469 80-393 limits assumed): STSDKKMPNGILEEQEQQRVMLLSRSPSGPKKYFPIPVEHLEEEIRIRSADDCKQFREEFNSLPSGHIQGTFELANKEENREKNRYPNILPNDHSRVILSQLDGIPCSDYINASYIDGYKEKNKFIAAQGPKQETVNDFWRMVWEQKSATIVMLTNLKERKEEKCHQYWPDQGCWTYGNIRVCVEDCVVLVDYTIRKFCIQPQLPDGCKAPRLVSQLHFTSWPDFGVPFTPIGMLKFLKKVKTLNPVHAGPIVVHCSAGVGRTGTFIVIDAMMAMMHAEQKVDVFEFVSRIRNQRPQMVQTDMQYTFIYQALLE
Protocol: as §1, §2, §3, §4, §5, §6
The PTPepsilon cDNA was amplified from human placenta single-strand cDNA (Clontech RNA) using the following oligonucleotides: 5′oligo: 5′-[…]-3′ (SEQ ID NO: 6) 3′oligo: 5′-[…]-3′ (SEQ ID NO: 7) After cloning this PCR product into the Bam HI/Xho I sites of pGEX 6P-1, this phosphatase was subcloned using the same restriction sites in pFastBac-G2T.

[1] = pNPP or FDP as substrate, 25° C., read-out: PTP IC50 Mu
[2] = pNPP or FDP as substrate, 25° C., read-out: PTP IC50 Beta
[3] = pNPP or FDP as substrate, 25° C., read-out: PTP IC50 1B
[4] = pNPP or FDP as substrate, 25° C., read-out: PTP IC50 Epilson
[5] = comparison of R groups, read-out: IC50 Mu
[6] = comparison of R groups, read-out: IC50 Beta
[7] = comparison of R groups, read-out: IC50 1B
[8] = comparison of R groups, read-out: IC50 Epsilon

T1 sequence (P28827 831-1186 limits assumed): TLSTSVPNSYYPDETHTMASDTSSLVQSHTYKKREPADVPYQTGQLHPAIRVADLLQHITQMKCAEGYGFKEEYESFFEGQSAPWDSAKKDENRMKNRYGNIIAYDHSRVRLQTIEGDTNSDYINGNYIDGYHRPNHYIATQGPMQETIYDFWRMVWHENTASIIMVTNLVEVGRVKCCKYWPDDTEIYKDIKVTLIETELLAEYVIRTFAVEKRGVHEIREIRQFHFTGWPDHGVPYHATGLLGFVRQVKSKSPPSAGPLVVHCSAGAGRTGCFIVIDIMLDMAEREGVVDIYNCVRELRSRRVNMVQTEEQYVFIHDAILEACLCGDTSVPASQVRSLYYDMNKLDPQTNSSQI

Row | Compound | IC50 (PTP MU; [1]) | IC50 (PTP BETA; [2]) | IC50 (PTP 1B; [3]) | IC50 (PTP EPSILON; [4]) | also measured
1 | CN(C)CC(COc1ccc(S(=O)(=O)C(F)(F)F)cc1[N+](=O)[O-])Oc1ccc(S(=O)(=O)C(F)(F)F)cc1[N+](=O)[O-] (stereo not drawn) [Example 24, [2,3-Bis-(2-nitro-4-trifluoromethanesulfonyl-phenoxy)-propyl]-dimethyl-amine] | > 100 µM | 5.1 µM | > 100 µM | > 100 µM | 
2 | CS(=O)(=O)Nc1ccc(Oc2ccc(Oc3ccc(NS(C)(=O)=O)cc3)cc2)cc1 [CH3SO2NH—] |  |  |  |  | IC50 (PTP MU; [5]): > 100 µM; IC50 (PTP BETA; [6]): 62.6 µM; IC50 (PTP 1B; [7]): 51.9 µM; IC50 (PTP EPSILON; [8]): 51.4 µM
3 | COC(=O)c1cc(Oc2ccc(S(=O)(=O)C(F)(F)F)cc2[N+](=O)[O-])cc(Oc2ccc(S(=O)(=O)C(F)(F)F)cc2[N+](=O)[O-])c1 [Example 11, 3,5-Bis-(2-nitro-4-trifluoromethanesulfonyl-phenoxy)-benzoic acid methyl ester] | > 100 µM | 11.2 µM | > 100 µM | 38.7 µM | 
4 | O=C(Cc1ccc(CC(=O)Nc2cccc(S(=O)(=O)C(F)(F)F)c2)cc1)Nc1cccc(S(=O)(=O)C(F)(F)F)c1 [Example 22, N-(3-Trifluoromethanesulfonyl-phenyl)-2-{4-[(3-trifluoromethanesulfonyl-phenylcarbamoyl)-methyl]-phenyl}-acetamide] | 17.4 µM | 1.4 µM | 25.7 µM | 8.3 µM | 
5 | O=C(O)Cc1ccccc1CC(=O)Nc1cccc(S(=O)(=O)C(F)(F)F)c1 [Example 27, {2-[(3-Trifluoromethanesulfonyl-phenylcarbamoyl)-methyl]-phenyl}-acetic acid] | > 100 µM | 61.4 µM | > 100 µM | 3.8 µM | 
6 | NC(=O)c1cc(Oc2ccc(S(=O)(=O)C(F)(F)F)cc2[N+](=O)[O-])cc(Oc2ccc(S(=O)(=O)C(F)(F)F)cc2[N+](=O)[O-])c1 [Example 30, 3,5-Bis-(2-nitro-4-trifluoromethanesulfonyl-phenoxy)-benzamide] |  |  |  |  | IC50 (PTP MU): 28.4 µM; IC50 (PTP BETA; PTP IC50 Beta, pNPP or FDP as substrate, 25° C.): 3.4 µM; IC50 (PTP 1B; PTP IC50 1B, pNPP or FDP as substrate, 25° C.): > 100 µM; IC50 (PTP EPSILON; PTP IC50 Epilson, pNPP or FDP as substrate, 25° C.): 4.3 µM
7 | Nc1ccc(Oc2ccc(Oc3ccc(N)cc3)cc2)cc1 [NH2] |  |  |  |  | IC50 (PTP MU; [5]): > 100 µM; IC50 (PTP BETA; [6]): > 100 µM; IC50 (PTP 1B; [7]): > 100 µM; IC50 (PTP EPSILON; [8]): > 100 µM
8 | Cc1cc(NS(=O)(=O)C(F)(F)F)ccc1CCc1ccc(NS(=O)(=O)C(F)(F)F)cc1C [Example 67, 1,2-Bis(2-methyl-4-trifluoromethylsulfonamidophenyl)ethane] | 41.3 µM | 55.9 µM | 35 µM | 50.8 µM | 
9 | CCOC(=O)c1cc(Oc2ccc(S(=O)(=O)C(F)(F)F)cc2[N+](=O)[O-])c(C(=O)OCC)cc1O [Example 26, 2-Hydroxy-5-(2-nitro-4-trifluoromethanesulfonyl-phenoxy)-terephthalic acid diethyl ester] | 65 µM | 2.9 µM | > 100 µM | 6.2 µM | 
10 | O=S(=O)(Nc1ccc(Oc2ccc(NS(=O)(=O)C(F)(F)F)cc2)cc1)C(F)(F)F [Example 73, Bis(4-trifluoromethylsulfonamidophenyl) ether] | 76.1 µM | > 100 µM | > 100 µM | 23.1 µM | 
11 | O=S(=O)(Nc1ccc(Oc2ccc(Oc3ccc(NS(=O)(=O)C(F)(F)F)cc3)cc2)cc1)C(F)(F)F [Example 71, 1,4-Bis(4-trifluoromethylsulfonamidophenoxy)benzene] |  | 12.1 µM | 10.6 µM | 16.9 µM | IC50 (PTP MU; [5]): 4 µM; IC50 (PTP BETA; [6]): 12.1 µM; IC50 (PTP 1B; [7]): 10.6 µM; IC50 (PTP EPSILON; [8]): 16.9 µM
12 | 1-(4-Aminophenoxy)-4-trifluoromethylsulfonamidophenoxy benzene [Example 72] | > 100 µM | 22.7 µM | 28.2 µM | 48.3 µM | 
13 | O=S(=O)(Nc1ccc(-c2nnc(-c3ccc(NS(=O)(=O)C(F)(F)F)cc3)o2)cc1)C(F)(F)F [Example 75, 2,5-Bis(4-trifluoromethylsulfonamidophenyl)-(1,3,4)oxadiazole] | 32.4 µM | 2.9 µM | 8.4 µM | 11.5 µM | 
14 | CCOC(=O)COc1ccc(S(=O)(=O)c2ccc(Oc3ccc(S(=O)(=O)C(F)(F)F)cc3)cc2)cc1 [Example 19, {4-[4-(4-trifluoromethanesulfonyl-phenoxy)-benzenesulfonyl]-phenoxy}-acetic acid ethyl ester] | 69.5 µM | 1.9 µM | 42.5 µM | 31.4 µM | 
15 | O=S(=O)(Nc1ccc(CCc2ccc(NS(=O)(=O)C(F)(F)F)cc2)cc1)C(F)(F)F [Example 66, 1,2-Bis(4-trifluoromethylsulfonamidophenyl)ethane] | 70.9 µM | 39.9 µM | 60.4 µM | > 100 µM | 
16 | O=C(NCc1ccc(S(=O)(=O)C(F)(F)F)cc1)c1ccc(S(=O)(=O)C(F)(F)F)cc1 [Example 5, N-(4-Trifluoromethylsulfonylbenzyl)-4-trifluoromethylsulfonylbenzamide] | > 100 µM | 44.8 µM | > 100 µM | 38.6 µM | 
17 | O=[N+]([O-])c1cc(S(=O)(=O)C(F)(F)F)ccc1Oc1cc(CN2CCOCC2)c(Oc2ccc(S(=O)(=O)C(F)(F)F)cc2[N+](=O)[O-])cc1CN1CCOCC1 [Example 23, 3,6-Bis-(morpholin-4-ylmethyl)-2,5-bis-(2-nitro-4-trifluoromethanesulfonyl-phenoxy)-benzene] | 18.3 µM | 1.1 µM | 11.6 µM | 2.2 µM | 
18 | O=S(=O)(Nc1ccc(OCCCCOc2ccc(NS(=O)(=O)C(F)(F)F)cc2)cc1)C(F)(F)F [Example 70, 1,4-Bis(4-trifluoromethylsulfonamidophenoxy)butane] | 65.3 µM | 7 µM | 85 µM | 48.4 µM | 
